Measured values: ChEMBL document CHEMBL2440029, “Discovery and characterization of NVP-QAV680, a potent and selective CRTh2 receptor antagonist suitable for clinical testing in allergic diseases” (Bioorg Med Chem, 2013)
In brackets after ≈: the same amount, converted by molar mass. Activity calls are given as the source filed them. The calls are words filed in the database; no cut-off is given here.

Experiments:
[1] = biological target: T1, Prostaglandin D2 receptor 2 (Homo sapiens, UniProt Q9Y5Y4); assay: Antagonist activity at human CRTh2 receptor expressed in CHO cells assessed as inhibition of prostaglandin D2 and forskolin-induced cAMP accumulation after 45 mins; assay type: functional, cell-based
T1 sequence (Q9Y5Y4 whole entry): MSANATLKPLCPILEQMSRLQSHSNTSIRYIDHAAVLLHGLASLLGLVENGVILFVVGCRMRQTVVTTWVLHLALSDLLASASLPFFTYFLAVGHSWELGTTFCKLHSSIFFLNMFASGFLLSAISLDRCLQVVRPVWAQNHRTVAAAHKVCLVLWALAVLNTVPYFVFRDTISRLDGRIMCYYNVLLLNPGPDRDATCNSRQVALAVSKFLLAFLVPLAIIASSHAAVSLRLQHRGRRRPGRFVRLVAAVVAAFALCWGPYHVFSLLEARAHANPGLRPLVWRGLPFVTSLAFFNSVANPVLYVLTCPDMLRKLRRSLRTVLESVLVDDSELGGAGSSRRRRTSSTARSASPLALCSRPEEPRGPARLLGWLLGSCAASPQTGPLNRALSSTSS

[2] = biological target: T2, Prostaglandin G/H synthase 2 (Homo sapiens) (UniProt P35354); assay: Inhibition of human COX2 at 10 uM
T2 sequence (whole entry): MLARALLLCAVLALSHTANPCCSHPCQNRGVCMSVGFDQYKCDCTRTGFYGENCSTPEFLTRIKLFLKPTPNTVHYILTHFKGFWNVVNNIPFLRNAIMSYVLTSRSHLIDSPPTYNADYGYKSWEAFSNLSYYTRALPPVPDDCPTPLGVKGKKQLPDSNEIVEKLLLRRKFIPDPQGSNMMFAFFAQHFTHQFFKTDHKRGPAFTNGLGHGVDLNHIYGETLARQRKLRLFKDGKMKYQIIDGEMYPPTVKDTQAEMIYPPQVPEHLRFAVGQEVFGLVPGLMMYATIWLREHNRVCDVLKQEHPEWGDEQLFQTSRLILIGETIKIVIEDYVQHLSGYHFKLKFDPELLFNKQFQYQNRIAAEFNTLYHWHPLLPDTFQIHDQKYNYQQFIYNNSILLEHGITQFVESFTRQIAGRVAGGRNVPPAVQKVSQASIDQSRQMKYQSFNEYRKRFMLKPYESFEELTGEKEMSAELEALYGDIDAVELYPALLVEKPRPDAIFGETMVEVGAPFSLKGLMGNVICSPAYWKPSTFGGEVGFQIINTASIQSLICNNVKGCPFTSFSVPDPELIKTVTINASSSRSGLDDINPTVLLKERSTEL

[3] = biological target: T3, Prostaglandin D2 receptor 2 (Homo sapiens) (UniProt Q9Y5Y4); assay: Antagonist activity at human CRTh2 receptor expressed in CHO cells assessed as inhibition of prostaglandin D2 and forskolin-induced cAMP accumulation after 45 mins in presence of 0.1% HSA; assay type: functional, cell-based
T3 sequence (whole entry): T1 sequence (Q9Y5Y4 whole entry)

[4] = biological target: T1, Prostaglandin D2 receptor 2; assay: Displacement of [3H]-prostaglandin D2 from human CRTh2 receptor expressed in CHO cells after 2 hrs; assay type: cell-based
[5] = biological target: Prostaglandin G/H synthase 1 (Homo sapiens) (UniProt P23219); assay: Inhibition of human COX1 at 10 uM
Sequence of Prostaglandin G/H synthase 1 (Homo sapiens) (P23219 whole entry): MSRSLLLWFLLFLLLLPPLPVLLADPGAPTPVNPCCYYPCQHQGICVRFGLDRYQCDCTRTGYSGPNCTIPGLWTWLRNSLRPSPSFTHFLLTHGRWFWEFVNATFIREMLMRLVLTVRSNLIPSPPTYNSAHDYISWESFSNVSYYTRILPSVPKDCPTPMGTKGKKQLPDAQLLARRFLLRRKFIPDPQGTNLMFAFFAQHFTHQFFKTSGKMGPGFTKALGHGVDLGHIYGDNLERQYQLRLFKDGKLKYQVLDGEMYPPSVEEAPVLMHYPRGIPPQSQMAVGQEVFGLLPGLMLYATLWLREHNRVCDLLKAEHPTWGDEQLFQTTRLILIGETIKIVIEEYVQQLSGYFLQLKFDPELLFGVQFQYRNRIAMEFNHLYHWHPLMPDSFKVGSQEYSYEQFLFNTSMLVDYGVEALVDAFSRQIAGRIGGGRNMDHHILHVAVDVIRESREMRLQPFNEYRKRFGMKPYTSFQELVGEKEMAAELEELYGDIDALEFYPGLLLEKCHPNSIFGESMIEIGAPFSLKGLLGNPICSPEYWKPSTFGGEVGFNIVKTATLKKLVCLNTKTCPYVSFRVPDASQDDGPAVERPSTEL

[6] = Antagonist activity at CRTh2 receptor in human isolated eosinophil assessed as inhibition of DK-PGD2-induced shape change after 5 mins by flow cytometry
[7] = Terminal half life in Wistar rat at 0.5 mg/kg, iv; assay type: ADME, organism-based; design: dose 0.5 mg/kg, route intravenous; conditions: in vivo, read-out: beta t1/2 (converted)
[8] = Cmax in Balb/c mouse at 5 mg/kg, po; assay type: ADME, organism-based; design: dose 5 mg/kg, route oral; conditions: in vivo
[9] = AUC (0 to 48 hrs) in Wistar rat at 3 mg/kg, po; assay type: ADME, organism-based; design: time < 48 hr, dose 3 mg/kg, route oral; conditions: plasma
Cytochrome P450 3A4 = Cytochrome P450 3A4 (Homo sapiens, UniProt P08684); assay: Inhibition of human CYP3A4; assay type: ADME
Sequence of Cytochrome P450 3A4 (P08684 whole entry): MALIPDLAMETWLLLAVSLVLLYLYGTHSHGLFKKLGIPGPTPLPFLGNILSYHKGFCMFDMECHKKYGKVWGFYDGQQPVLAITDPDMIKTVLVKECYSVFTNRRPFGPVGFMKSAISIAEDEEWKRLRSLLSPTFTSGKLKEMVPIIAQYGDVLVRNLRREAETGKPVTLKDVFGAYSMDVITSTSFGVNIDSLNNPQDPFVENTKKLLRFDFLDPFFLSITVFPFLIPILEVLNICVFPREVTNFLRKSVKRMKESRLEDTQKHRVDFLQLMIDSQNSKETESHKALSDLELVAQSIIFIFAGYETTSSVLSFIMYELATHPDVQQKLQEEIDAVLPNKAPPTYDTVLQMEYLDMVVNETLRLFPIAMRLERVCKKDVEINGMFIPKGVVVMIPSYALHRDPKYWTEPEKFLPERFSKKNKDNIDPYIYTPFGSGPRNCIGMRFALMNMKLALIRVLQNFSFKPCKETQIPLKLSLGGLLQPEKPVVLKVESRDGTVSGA

[10] = biological target: Leukotriene B4 receptor 1 (Homo sapiens) (UniProt Q15722); assay: Inhibition of LTB4 receptor (unknown origin) at 10 uM
Sequence of Leukotriene B4 receptor 1 (Homo sapiens) (Q15722 whole entry): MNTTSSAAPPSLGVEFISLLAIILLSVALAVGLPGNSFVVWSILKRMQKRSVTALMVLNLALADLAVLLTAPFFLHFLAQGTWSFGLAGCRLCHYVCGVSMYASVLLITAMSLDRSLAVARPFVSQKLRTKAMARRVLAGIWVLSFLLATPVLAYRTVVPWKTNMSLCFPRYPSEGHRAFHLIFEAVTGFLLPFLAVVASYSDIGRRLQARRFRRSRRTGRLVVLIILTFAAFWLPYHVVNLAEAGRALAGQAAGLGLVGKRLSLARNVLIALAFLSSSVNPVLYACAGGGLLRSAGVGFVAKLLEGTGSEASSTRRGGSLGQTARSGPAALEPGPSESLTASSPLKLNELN

Prostacyclin receptor = Prostacyclin receptor (Homo sapiens, UniProt P43119); assay: Inhibition of prostanoid IP receptor (unknown origin)
Sequence of Prostacyclin receptor (P43119 whole entry): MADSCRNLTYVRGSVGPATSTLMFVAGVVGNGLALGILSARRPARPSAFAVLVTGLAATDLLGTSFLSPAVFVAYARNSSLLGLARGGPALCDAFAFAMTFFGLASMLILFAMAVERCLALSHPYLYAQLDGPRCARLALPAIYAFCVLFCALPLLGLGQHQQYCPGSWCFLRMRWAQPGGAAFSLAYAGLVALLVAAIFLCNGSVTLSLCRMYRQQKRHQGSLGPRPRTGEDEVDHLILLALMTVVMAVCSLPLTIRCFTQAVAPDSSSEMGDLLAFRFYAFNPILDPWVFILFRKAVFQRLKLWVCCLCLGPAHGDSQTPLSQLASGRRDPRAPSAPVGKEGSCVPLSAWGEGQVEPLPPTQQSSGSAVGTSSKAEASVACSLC

[11] = AUC (0 to 48 hrs) in Wistar rat at 100 mg/kg, po; assay type: ADME, organism-based; design: time < 48 hr, dose 100 mg/kg, route oral; conditions: plasma
[12] = biological target: Prostaglandin E2 receptor EP2 subtype (Homo sapiens, UniProt P43116); assay: Inhibition of prostanoid EP2 receptor (unknown origin)
[13] = biological target: Prostaglandin D2 receptor (Homo sapiens, UniProt Q13258); assay: Inhibition of prostanoid DP1 receptor (unknown origin)
Sequence of Prostaglandin D2 receptor (Q13258 whole entry): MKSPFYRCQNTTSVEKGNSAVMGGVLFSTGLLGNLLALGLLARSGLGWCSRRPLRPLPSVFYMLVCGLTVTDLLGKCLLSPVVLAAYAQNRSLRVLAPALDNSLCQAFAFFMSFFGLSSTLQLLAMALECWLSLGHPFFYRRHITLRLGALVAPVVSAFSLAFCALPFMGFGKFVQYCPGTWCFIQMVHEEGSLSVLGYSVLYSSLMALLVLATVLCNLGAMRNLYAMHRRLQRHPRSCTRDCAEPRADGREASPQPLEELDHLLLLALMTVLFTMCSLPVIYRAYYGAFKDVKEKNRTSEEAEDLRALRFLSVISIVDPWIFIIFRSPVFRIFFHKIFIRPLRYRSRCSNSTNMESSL

[14] = biological target: Polyunsaturated fatty acid 5-lipoxygenase (Homo sapiens) (UniProt P09917); assay: Inhibition of human 5-lipoxygenase at 10 uM
[15] = Tmax in Wistar rat at 3 mg/kg, po; assay type: ADME, organism-based; design: dose 3 mg/kg, route oral; conditions: in vivo
Rattus norvegicus [16] = assay: Inhibition of eosinophil recruitment in bronchoalveolar lavage in po dosed Sprague-Dawley rat allergic disease model; assay type: functional, organism-based; conditions: Lung
Mus musculus = assay: Inhibition of FITC hapten-induced ear edema in po dosed Balb/cJBomTac mouse allergic contact dermatitis model after 24 hrs; assay type: functional
Thromboxane A2 receptor = Thromboxane A2 receptor (Homo sapiens, UniProt P21731); assay: Inhibition of prostanoid TP receptor (unknown origin)
Sequence of Thromboxane A2 receptor (P21731 whole entry): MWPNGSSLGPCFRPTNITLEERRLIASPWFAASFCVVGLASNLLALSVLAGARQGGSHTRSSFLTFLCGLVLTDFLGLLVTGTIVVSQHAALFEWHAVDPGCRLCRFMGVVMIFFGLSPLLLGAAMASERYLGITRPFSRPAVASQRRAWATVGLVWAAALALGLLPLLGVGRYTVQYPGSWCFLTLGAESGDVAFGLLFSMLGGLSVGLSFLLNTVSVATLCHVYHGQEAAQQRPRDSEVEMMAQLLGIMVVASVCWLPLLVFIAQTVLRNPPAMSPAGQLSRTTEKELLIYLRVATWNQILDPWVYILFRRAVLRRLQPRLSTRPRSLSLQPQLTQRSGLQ

[17] = Apparent permeability from apical to basolateral side in human Caco2 cells; assay type: ADME, cell-based; conditions: Caco-2
[18] = Volume of distribution at steady state in Wistar rat at 0.5 mg/kg, iv; assay type: ADME, organism-based; design: dose 0.5 mg/kg, route intravenous; conditions: in vivo, read-out: Vdss
[19] = biological target: T4, Prostaglandin D2 receptor 2 (Mus musculus, UniProt Q9Z2J6); assay: Displacement of [3H]-prostaglandin D2 from mouse CRTh2 receptor expressed in CHO cells after 2 hrs; assay type: cell-based
T4 sequence (Q9Z2J6 whole entry): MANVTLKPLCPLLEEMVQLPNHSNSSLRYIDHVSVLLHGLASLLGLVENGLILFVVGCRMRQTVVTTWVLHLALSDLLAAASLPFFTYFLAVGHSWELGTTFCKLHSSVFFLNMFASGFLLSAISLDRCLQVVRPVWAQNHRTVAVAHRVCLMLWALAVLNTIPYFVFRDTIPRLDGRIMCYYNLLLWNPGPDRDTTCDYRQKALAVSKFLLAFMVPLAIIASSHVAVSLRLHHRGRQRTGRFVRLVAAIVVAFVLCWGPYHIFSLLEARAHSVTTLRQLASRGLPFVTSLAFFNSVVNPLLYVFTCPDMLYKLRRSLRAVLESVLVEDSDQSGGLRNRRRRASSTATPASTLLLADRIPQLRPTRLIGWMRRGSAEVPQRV

[20] = biological target: Cysteinyl leukotriene receptor 1 (Homo sapiens) (UniProt Q9Y271); assay: Inhibition of CysLT1 receptor (unknown origin) at 10 uM
[21] = Cmax in Wistar rat at 100 mg/kg, po; assay type: ADME, organism-based; design: dose 100 mg/kg, route oral; conditions: in vivo
[22] = Oral bioavailability in Wistar rat at 3 mg/kg; assay type: ADME, organism-based; conditions: in vivo
[23] = biological target: Prostaglandin F2-alpha receptor (Homo sapiens, UniProt P43088); assay: Inhibition of prostanoid FP receptor (unknown origin)
Sequence of Prostaglandin F2-alpha receptor (P43088 whole entry): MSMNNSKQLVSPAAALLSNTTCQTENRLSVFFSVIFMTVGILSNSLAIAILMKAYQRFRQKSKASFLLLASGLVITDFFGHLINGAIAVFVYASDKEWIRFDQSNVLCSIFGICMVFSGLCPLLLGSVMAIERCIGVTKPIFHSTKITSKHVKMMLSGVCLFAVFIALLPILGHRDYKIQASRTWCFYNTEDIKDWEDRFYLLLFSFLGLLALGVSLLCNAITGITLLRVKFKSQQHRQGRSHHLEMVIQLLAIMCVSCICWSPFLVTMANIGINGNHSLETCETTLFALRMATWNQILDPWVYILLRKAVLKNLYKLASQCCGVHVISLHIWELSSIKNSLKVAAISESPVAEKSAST

Cytochrome P450 2D6 = Cytochrome P450 2D6 (Homo sapiens, UniProt P10635); assay: Inhibition of human CYP2D6; assay type: ADME
Sequence of Cytochrome P450 2D6 (P10635 whole entry): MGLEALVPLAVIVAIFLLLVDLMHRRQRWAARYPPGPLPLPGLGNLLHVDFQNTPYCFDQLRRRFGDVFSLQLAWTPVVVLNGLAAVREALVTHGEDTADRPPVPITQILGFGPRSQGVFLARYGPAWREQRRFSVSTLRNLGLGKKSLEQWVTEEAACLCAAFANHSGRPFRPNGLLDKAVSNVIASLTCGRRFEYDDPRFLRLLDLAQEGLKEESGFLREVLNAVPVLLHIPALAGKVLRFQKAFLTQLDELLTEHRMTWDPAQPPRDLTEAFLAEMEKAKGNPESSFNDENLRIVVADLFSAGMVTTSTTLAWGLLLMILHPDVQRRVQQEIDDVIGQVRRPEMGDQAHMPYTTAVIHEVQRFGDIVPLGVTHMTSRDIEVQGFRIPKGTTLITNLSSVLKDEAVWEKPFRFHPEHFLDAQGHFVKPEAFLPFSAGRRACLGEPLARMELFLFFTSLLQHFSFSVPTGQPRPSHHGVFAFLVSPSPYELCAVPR

[24] = biological target: Cysteinyl leukotriene receptor 2 (Homo sapiens) (UniProt Q9NS75); assay: Inhibition of CysLT2 receptor (unknown origin) at 10 uM
Cytochrome P450 1A2 = Cytochrome P450 1A2 (Homo sapiens, UniProt P05177); assay: Inhibition of human CYP1A2; assay type: ADME
Sequence of Cytochrome P450 1A2 (P05177 whole entry): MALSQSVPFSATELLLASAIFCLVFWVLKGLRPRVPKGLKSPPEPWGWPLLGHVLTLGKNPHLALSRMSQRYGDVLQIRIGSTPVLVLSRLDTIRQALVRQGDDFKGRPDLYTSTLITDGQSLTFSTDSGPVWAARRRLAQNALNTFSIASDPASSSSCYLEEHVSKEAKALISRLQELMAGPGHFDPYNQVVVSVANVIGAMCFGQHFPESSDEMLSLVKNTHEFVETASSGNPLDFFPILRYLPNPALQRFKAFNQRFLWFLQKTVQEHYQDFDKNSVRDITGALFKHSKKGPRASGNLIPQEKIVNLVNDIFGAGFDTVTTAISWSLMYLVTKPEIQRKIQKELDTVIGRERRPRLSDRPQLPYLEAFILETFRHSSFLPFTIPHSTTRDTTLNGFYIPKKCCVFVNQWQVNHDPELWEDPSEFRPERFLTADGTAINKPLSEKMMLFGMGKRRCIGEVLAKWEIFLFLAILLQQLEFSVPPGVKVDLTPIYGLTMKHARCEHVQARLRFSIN

[25] = Clearance in Wistar rat at 0.5 mg/kg, iv; assay type: ADME, organism-based; design: dose 0.5 mg/kg, route intravenous; conditions: in vivo
[26] = biological target: Prostaglandin E2 receptor EP3 subtype (Homo sapiens, UniProt P43115); assay: Inhibition of prostanoid EP3 receptor (unknown origin)
Sequence of Prostaglandin E2 receptor EP3 subtype (P43115 whole entry): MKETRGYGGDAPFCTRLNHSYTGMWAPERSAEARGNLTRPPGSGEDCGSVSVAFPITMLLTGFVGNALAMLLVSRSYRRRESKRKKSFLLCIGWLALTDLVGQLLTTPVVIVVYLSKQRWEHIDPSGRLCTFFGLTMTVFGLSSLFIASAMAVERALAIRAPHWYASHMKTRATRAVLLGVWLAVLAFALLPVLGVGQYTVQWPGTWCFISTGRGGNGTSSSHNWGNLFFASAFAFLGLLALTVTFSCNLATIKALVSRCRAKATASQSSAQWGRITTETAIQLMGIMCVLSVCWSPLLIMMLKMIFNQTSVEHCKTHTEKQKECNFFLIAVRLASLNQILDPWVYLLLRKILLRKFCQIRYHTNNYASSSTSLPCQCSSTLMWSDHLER

[27] = biological target: Prostaglandin E2 receptor EP4 subtype (Homo sapiens, UniProt P35408); assay: Inhibition of prostanoid EP4 receptor (unknown origin)
[28] = biological target: T4, Prostaglandin D2 receptor 2; assay: Antagonist activity at mouse CRTh2 receptor expressed in CHO-K1 cells assessed as inhibition of […]-GTP-gamma-S binding after 50 mins by liquid scintillation counting; assay type: functional, cell-based
Cytochrome P450 2C9 = Cytochrome P450 2C9 (Homo sapiens, UniProt P11712); assay: Inhibition of human CYP2C9; assay type: ADME
[29] = Apparent permeability from basolateral to apical side in human Caco2 cells; assay type: ADME, cell-based; conditions: Caco-2
[30] = Tmax in Wistar rat at 100 mg/kg, po; assay type: ADME, organism-based; design: dose 100 mg/kg, route oral; conditions: in vivo
Rattus norvegicus [31] = assay: Inhibition of eosinophil recruitment in bronchoalveolar lavage in Sprague-Dawley rat allergic disease model at 1 mg/kg, po; assay type: functional, organism-based; design: dose 1 mg/kg; conditions: Lung
[32] = Cmax in Wistar rat at 3 mg/kg, po; assay type: ADME, organism-based; design: dose 3 mg/kg, route oral; conditions: in vivo
[33] = Oral bioavailability in Wistar rat at 100 mg/kg; assay type: ADME, organism-based; conditions: in vivo
[34] = Solubility of the compound at pH 6.8; assay type: physicochemical; conditions: buffer
[35] = Fraction unbound in Sprague-Dawley rat plasma at 0.1 to 0.3 mg/kg, po; assay type: ADME, organism-based; design: dose 0.1-0.3 mg/kg, route oral
[36] = Inhibition of DK-PGD2-induced IL-13 production in human CD4+ Th2 cells after 6 to 8 hrs; assay type: functional, cell-based
[37] = Inhibition of DK-PGD2-induced IL-5 production in human CD4+ Th2 cells after 6 to 8 hrs; assay type: functional, cell-based

Compound: Cc1c(CC(=O)O)c2cccnc2n1Cc1ccc(Cl)cc1
- IC50 [1]: 484 nM
- inhibition [2]: inactive
- fold change (FC) [3]: 4.1
- Ki [4]: 149 nM
- inhibition [5]: inactive

Compound: Cc1c(CC(=O)O)c2cccnc2n1Cc1ccccc1Cl
- Ki [4]: 624 nM

Compound: Cc1c(CC(=O)O)c2cccnc2n1Cc1cccnc1
- Ki [4]: 1060 nM

Compound: Cc1c(CC(=O)O)c2cccnc2n1Cc1ccncc1
- Ki [4]: 2230 nM

Compound: Cc1c(CC(=O)O)c2cccnc2n1Cc1ccccn1
- Ki [4]: 2940 nM

Compound: Cc1c(CC(=O)O)c2cccnc2n1Cc1ccc(C#N)cc1
- IC50 [1]: 554 nM
- fold change (FC) [3]: 3.6
- Ki [4]: 379 nM

Compound: Cc1c(CC(=O)O)c2cccnc2n1Cc1ccc(S(=O)(=O)C(F)(F)F)cc1
- IC50 [1]: 147 nM
- fold change (FC) [3]: 0.9
- Ki [4]: 208 nM

Compound: Cc1c(CC(=O)O)c2cccnc2n1S(=O)(=O)c1ccc(Cl)cc1
- IC50 [1]: 565 nM
- inhibition [2]: inactive
- fold change (FC) [3]: 3.8
- IC50 [6]: 108 nM
- inhibition [5]: inactive

Compound: Cc1c(CC(=O)O)c2cccnc2n1Cc1ccc([N+](=O)[O-])cc1
- fold change (FC) [3]: 4.1

Compound: Cc1c(CC(=O)O)c2cccnc2n1S(=O)(=O)c1ccc(F)c(F)c1
- fold change (FC) [3]: 1.3

Compound: Cc1c(CC(=O)O)c2cccnc2n1Cc1ccc([S+](C)[O-])cc1 (racemic)
- IC50 [1]: 233 nM
- fold change (FC) [3]: 3.1
- Ki [4]: 249 nM

Compound: Cc1c(CC(=O)O)c2cccnc2n1Cc1ccc(S(C)(=O)=O)cc1 [QAV680]
- half-life [7]: 1030 min
- Cmax [8]: 7.6 µM
- AUC(0-t) at 48 h [9]: 6.06 µM·h
- IC50 (Cytochrome P450 3A4): > 100 µM
- inhibition [10]: inactive
- IC50 (Prostacyclin receptor): > 10 µM
- AUC(0-t) at 48 h [11]: 128 µM·h
- IC50 [12]: > 10 µM
- IC50 [13]: > 10 µM
- inhibition [14]: inactive
- IC50 [1]: 37 nM
- Tmax [15]: 39.6 min
- Activity (Rattus norvegicus [16]): Dose-dependent effect
- inhibition (Mus musculus): Dose-dependent effect
- minimal effective dose (Mus musculus; read-out: MED): 10 mg/kg
- IC50 (Thromboxane A2 receptor): > 10 µM
- Papp A→B [17]: 0.9 ×10⁻⁶ cm/s
- Vd [18]: 5.5 L/kg
- Ki [19]: 10 nM
- inhibition [20]: inactive
- Cmax [21]: 42.7 µM
- bioavailability [22]: 54%
- IC50 [23]: > 10 µM
- IC50 (Cytochrome P450 2D6): > 100 µM
- inhibition [2]: inactive
- inhibition [24]: inactive
- IC50 (Cytochrome P450 1A2): > 100 µM
- clearance [25]: 15.2 mL/min/kg
- IC50 [26]: > 10 µM
- IC50 [27]: > 10 µM
- IC50 [28]: 94 nM
- IC50 (Cytochrome P450 2C9): > 100 µM
- Papp B→A [29]: 2.2 ×10⁻⁶ cm/s
- fold change (FC) [3]: 3.1
- Tmax [30]: 39.6 min
- Activity (Rattus norvegicus [31]): Active
- Ki [4]: 36 nM
- Cmax [32]: 2600 nM
- bioavailability [33]: 35%
- inhibition [5]: inactive
- solubility [34]: 5200 µg/mL (≈ 14.5 mM)
- fraction unbound [35]: 0.34
- IC50 [36]: 25 nM
- IC50 [37]: 59 nM
